# Test results taken from ChEMBL document CHEMBL4819047, “Discovery of a new class of multi-target heterocycle piperidine derivatives as potential antipsychotics with pro-cognitive effect” (Bioorg Med Chem Lett, 2021).
# How the values were obtained:
# D(2) dopamine receptor [1] = molecular target: T1, D(2) dopamine receptor (Homo sapiens, UniProt P14416)
# Description: Binding affinity to dopamine D2 receptor (unknown origin)
# [2] = molecular target: T2, 5-hydroxytryptamine receptor 2A (Homo sapiens, UniProt P28223)
# Histamine H1 receptor = Histamine H1 receptor (Homo sapiens, UniProt P35367); assay type: ADME
# Description: Binding affinity to histamine H1 receptor (unknown origin)
# D(3) dopamine receptor = D(3) dopamine receptor (Homo sapiens, UniProt P35462)
# Description: Binding affinity to dopamine D3 receptor (unknown origin)
# [3] = molecular target: T3, 5-hydroxytryptamine receptor 1A (Homo sapiens, UniProt P08908)
# T3 sequence (P08908 whole entry): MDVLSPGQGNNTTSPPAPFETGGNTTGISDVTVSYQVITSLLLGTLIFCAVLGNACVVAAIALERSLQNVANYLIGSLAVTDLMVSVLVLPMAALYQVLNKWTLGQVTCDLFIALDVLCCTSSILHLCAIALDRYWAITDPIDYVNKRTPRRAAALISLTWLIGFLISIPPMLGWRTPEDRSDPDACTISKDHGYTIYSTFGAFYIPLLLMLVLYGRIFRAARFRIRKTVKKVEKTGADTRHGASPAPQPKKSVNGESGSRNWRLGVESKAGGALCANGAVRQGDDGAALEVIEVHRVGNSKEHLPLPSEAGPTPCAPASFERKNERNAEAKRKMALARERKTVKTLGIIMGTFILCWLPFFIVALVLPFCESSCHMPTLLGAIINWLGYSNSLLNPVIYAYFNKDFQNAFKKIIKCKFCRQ
# [4] = molecular target: T4, 5-hydroxytryptamine receptor 2C (Homo sapiens, UniProt P28335)
# T4 sequence (P28335 whole entry): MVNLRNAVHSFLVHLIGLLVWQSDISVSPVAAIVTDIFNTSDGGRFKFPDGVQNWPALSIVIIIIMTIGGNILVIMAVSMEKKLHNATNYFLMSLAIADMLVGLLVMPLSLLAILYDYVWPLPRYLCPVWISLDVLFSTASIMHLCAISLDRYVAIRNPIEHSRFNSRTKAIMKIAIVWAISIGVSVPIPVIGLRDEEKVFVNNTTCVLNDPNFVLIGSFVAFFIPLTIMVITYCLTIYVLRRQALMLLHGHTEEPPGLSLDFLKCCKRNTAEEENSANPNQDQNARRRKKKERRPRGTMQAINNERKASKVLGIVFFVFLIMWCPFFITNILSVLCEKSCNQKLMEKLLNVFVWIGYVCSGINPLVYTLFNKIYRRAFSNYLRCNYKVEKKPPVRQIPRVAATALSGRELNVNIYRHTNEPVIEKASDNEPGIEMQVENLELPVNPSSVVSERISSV
# [5] = molecular target: 5-hydroxytryptamine receptor 6 (Homo sapiens, UniProt P50406)
# [6] = molecular target: T5, Alpha-1A adrenergic receptor (Homo sapiens, UniProt P35348)
# T5 sequence (P35348 whole entry): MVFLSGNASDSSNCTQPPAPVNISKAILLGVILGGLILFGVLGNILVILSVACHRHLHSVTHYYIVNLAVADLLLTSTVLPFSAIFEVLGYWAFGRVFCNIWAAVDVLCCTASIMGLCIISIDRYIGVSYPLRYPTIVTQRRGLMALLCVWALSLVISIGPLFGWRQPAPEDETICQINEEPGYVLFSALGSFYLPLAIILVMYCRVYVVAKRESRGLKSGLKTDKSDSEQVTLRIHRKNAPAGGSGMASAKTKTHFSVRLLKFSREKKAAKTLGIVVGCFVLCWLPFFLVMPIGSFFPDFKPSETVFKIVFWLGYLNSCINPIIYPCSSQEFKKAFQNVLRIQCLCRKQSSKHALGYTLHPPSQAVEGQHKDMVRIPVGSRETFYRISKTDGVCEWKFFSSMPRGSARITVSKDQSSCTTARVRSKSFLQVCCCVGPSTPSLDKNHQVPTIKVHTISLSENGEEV
# Description: Binding affinity to alpha1 adrenoceptor (unknown origin)
# Histamine H3 receptor = Histamine H3 receptor (Homo sapiens, UniProt Q9Y5N1)
# Description: Binding affinity to histamine H3 receptor (unknown origin)
# [7] = molecular target: Voltage-gated inwardly rectifying potassium channel KCNH2 (Homo sapiens, UniProt Q12809)
# Description: Inhibition of human ERG by automated patch method relative to control
# D(2) dopamine receptor [8] = molecular target: T1, D(2) dopamine receptor; assay: Antagonist activity at D2 receptor (unknown origin); assay type: functional
# [9] = molecular target: T3, 5-hydroxytryptamine receptor 1A; assay: Antagonist activity at 5-HT1A receptor (unknown origin); assay type: functional
# [10] = molecular target: T2, 5-hydroxytryptamine receptor 2A; assay: Antagonist activity at 5-HT2A receptor (unknown origin); assay type: functional
# [11] = Therapeutic index, ratio of ED50 for induction of catalepsy in po dosed mouse to ED50 for antipsychotic activity in po dosed mouse assessed as suppression of apomorphine-induced climbing; assay type: toxicity, organism-based; conditions: in vivo, read-out: Ratio ED50
# [12] = Therapeutic index, ratio of ED50 for induction of catalepsy in po dosed mouse to ED50 for antipsychotic activity in po dosed mouse assessed as reduction in MK-801-induced hyperlocomotor activity; assay type: toxicity, organism-based; conditions: in vivo, read-out: Ratio ED50
# [13] = mouse, in vivo, po
# Description: Induction of catalepsy in po dosed mouse by Horizontal grid and elevated bar test
# Mus musculus [14] = organism: Mus musculus; assay: animal or person; conditions: po
# Description: Antipsychotic activity in po dosed mouse assessed as suppression of apomorphine-induced climbing behaviour
# Mus musculus [15] = organism: Mus musculus; assay: animal or person; conditions: po; remark: listed apart in the source
# Description: Antipsychotic activity in po dosed mouse assessed as reduction in MK-801-induced hyperlocomotor activity
# Rattus norvegicus = organism: Rattus norvegicus; assay: animal or person; conditions: po
# Description: Antipsychotic activity in po dosed rat assessed as suppression in conditioned avoidance response by CAR test
# Chain of Histamine H3 receptor (Q9Y5N1 whole entry): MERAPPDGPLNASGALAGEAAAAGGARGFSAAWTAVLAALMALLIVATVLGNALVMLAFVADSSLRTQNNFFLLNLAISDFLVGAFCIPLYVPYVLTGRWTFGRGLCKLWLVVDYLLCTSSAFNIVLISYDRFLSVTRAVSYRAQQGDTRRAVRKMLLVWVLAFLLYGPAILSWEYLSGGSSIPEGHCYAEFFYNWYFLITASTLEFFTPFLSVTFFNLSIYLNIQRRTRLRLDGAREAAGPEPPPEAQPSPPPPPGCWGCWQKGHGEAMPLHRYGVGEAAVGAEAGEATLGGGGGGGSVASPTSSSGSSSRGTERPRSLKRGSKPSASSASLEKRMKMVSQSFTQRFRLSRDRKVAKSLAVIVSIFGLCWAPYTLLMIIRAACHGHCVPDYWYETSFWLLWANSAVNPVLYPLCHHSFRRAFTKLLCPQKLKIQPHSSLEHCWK
# T2 sequence (P28223 whole entry): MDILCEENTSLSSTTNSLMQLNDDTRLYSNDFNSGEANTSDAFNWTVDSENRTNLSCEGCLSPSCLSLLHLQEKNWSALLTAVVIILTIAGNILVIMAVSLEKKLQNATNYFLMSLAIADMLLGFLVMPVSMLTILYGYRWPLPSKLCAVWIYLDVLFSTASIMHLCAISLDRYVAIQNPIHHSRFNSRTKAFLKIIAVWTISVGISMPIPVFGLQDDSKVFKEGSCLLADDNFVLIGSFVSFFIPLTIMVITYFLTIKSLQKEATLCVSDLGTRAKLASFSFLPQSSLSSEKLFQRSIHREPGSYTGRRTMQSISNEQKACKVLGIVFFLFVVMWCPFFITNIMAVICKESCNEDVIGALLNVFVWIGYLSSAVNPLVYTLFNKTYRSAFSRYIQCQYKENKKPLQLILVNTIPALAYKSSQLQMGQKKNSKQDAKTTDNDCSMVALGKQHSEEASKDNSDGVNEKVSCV
# T1 sequence (P14416 whole entry): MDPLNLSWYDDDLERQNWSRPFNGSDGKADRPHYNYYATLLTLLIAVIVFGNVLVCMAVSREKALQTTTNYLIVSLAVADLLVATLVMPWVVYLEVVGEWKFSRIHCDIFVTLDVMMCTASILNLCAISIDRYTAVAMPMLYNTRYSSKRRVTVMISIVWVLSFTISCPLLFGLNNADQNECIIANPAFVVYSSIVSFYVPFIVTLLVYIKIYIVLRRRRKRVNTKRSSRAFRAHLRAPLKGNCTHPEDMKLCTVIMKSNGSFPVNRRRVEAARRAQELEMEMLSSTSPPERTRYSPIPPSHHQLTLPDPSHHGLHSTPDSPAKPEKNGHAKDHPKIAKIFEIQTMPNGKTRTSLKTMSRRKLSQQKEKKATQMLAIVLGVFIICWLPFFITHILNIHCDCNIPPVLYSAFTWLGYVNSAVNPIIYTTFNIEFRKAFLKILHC
# Chain of 5-hydroxytryptamine receptor 6 (P50406 whole entry): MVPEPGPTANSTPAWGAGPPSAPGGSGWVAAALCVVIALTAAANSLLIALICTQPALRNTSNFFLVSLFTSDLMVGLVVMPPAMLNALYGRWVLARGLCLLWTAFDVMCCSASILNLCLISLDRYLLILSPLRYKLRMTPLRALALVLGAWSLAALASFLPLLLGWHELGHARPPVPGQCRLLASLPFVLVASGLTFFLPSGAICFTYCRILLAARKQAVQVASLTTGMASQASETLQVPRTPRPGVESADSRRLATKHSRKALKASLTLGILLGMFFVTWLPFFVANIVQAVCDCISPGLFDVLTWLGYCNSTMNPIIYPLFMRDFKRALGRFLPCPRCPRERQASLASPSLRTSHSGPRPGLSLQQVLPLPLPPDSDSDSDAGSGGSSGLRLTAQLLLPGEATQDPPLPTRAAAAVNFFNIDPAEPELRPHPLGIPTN
# Chain of D(3) dopamine receptor (P35462 whole entry): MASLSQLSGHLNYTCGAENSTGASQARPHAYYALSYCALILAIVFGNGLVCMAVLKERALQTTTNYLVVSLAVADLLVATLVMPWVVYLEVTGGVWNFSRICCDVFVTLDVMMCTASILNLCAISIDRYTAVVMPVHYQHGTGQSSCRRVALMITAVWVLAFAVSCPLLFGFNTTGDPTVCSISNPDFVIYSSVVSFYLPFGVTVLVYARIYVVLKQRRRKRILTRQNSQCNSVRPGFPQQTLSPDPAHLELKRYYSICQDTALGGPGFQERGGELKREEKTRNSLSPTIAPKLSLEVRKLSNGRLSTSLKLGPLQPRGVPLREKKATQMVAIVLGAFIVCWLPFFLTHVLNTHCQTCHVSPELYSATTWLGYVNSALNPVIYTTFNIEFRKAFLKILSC
# Chain of Voltage-gated inwardly rectifying potassium channel KCNH2 (Q12809 whole entry): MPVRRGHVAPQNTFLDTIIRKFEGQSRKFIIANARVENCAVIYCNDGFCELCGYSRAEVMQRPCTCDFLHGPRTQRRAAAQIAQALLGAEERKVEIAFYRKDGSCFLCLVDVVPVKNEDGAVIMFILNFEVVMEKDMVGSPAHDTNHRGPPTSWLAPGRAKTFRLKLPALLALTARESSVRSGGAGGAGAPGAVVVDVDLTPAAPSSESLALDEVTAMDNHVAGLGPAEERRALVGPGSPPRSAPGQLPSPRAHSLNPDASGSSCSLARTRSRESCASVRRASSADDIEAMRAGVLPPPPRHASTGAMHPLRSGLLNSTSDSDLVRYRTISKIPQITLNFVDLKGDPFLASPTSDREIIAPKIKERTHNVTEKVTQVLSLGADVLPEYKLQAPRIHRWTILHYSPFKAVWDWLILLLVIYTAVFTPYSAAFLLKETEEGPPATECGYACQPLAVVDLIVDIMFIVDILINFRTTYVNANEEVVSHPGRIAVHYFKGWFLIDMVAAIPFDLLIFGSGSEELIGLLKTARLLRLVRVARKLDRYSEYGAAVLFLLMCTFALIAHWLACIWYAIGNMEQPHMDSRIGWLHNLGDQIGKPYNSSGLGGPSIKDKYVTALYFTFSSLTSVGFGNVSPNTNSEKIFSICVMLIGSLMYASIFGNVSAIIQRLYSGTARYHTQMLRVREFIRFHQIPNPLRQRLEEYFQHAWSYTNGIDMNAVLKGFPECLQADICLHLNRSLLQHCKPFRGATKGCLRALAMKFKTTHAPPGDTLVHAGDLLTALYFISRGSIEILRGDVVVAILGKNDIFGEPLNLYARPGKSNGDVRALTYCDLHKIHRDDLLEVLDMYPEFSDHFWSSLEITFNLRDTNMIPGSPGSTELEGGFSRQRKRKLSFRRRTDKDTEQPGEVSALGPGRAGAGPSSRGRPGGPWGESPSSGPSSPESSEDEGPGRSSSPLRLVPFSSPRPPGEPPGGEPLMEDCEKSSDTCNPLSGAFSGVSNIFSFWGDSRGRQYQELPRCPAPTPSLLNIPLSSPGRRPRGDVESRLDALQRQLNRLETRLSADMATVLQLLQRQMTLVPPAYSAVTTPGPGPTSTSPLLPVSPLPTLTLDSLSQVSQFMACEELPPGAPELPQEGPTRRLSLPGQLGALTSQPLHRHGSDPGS
# Chain of Histamine H1 receptor (P35367 whole entry): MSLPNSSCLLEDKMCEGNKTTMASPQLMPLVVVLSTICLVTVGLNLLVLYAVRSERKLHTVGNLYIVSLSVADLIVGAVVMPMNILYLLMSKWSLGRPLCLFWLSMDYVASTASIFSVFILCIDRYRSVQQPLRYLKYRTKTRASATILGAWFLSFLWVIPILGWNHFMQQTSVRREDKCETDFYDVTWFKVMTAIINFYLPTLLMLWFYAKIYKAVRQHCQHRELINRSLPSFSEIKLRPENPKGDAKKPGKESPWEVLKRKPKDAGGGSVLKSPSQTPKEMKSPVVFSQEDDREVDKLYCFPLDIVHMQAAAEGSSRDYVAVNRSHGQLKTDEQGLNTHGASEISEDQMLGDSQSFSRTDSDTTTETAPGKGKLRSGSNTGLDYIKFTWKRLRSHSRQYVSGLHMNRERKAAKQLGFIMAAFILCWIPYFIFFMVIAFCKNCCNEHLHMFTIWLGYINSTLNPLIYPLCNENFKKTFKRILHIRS
SMILES,Ki (D(2) dopamine receptor [1]),Ki [2],Ki [3],Ki (Histamine H3 receptor),other results
Cc1cc(=O)oc2c(Cl)c(OCCCCN3CCC(c4noc5cc(F)ccc45)CC3)ccc12,2.6 nM,0.3 nM,3.3 nM,–,Ki (Histamine H1 receptor): 1130 nM; Ki (D(3) dopamine receptor): 4.3 nM; Ki [4]: 1700 nM; Ki [5]: 228 nM; Ki [6]: 2570 nM
O=c1ccc(OCCCN2CCC(c3noc4cc(F)ccc34)CC2)nn1-c1c(F)cccc1F,5 nM,0.3 nM,5.9 nM,–,Ki (Histamine H1 receptor): 2000 nM; Ki (D(3) dopamine receptor): 35.7 nM; Ki [4]: 1580 nM; Ki [6]: 337 nM
Fc1ccc2c(C3CCN(CCCOc4ccc(CN5CCOCC5)cc4Cl)CC3)noc2c1,2.5 nM,5.7 nM,105 nM,149 nM,–
Cc1cc(OCCCN2CCC(c3noc4cc(F)ccc34)CC2)ccc1CN1CCCC1,12.6 nM,11.5 nM,89.3 nM,113 nM,–
CN1CCN(CCc2ccc(OCCCN3CCC(c4noc5cc(F)ccc45)CC3)cc2)CC1,–,8.6 nM,16.4 nM,271 nM,–
Fc1ccc2c(C3CCN(CCCOc4ccc(CN5CCCCC5)cc4F)CC3)noc2c1,10.3 nM,6.5 nM,90.6 nM,270 nM,–
CC1CCN(CCc2ccc(OCCCN3CCC(c4noc5cc(F)ccc45)CC3)cc2)CC1,7.4 nM,42.9 nM,9.6 nM,11.9 nM,–
Fc1ccc2c(C3CCN(CCCOc4ccc(CCN5CCCCC5)cc4)CC3)noc2c1,9.7 nM,9.4 nM,7.4 nM,13.4 nM,Ki (Histamine H1 receptor): 1020 nM; Ki (D(3) dopamine receptor): 15.2 nM; Ki [4]: 753 nM; Ki [5]: 149 nM; Ki [6]: 536 nM; IC50 [7]: 2290 nM
Fc1ccc2c(C3CCN(CCCOc4ccc(CN5CCCCC5)cc4)CC3)noc2c1,10.8 nM,5.1 nM,89.7 nM,270 nM,–
CN1CCN(Cc2ccc(OCCCN3CCC(c4noc5cc(F)ccc45)CC3)cc2)CC1,1.7 nM,4.7 nM,11.9 nM,8.2 nM,Ki (Histamine H1 receptor): 719 nM; Ki (D(3) dopamine receptor): 23.2 nM; Ki [4]: 573 nM; Ki [5]: 93.3 nM; Ki [6]: 332 nM; IC50 [7]: 1560 nM
Fc1ccc2c(C3CCN(CCCOc4ccc(CCN5CCOCC5)cc4)CC3)noc2c1,10.5 nM,8.4 nM,5.6 nM,–,Ki (Histamine H1 receptor): 968 nM; IC50 (D(2) dopamine receptor [8]): 11.3 nM; IC50 [9]: 247 nM; IC50 [10]: 186 nM; Ki [4]: 610 nM; Ki [5]: 141 nM; Ki [6]: 438 nM; IC50 [7]: 2410 nM
COc1cc(CN2CCCCC2)ccc1OCCCN1CCC(c2noc3cc(F)ccc23)CC1,9.5 nM,9 nM,67.7 nM,256 nM,–
Fc1ccc2c(C3CCN(CCCOc4ccc(CN5CCOCC5)c(F)c4)CC3)noc2c1,2 nM,5.2 nM,92.2 nM,187 nM,–
Fc1ccc2c(C3CCN(CCCOc4ccc(CN5CCCC5)cc4Cl)CC3)noc2c1,14.1 nM,10.1 nM,79.2 nM,125 nM,–
O=C(CCCN1CCC(O)(c2ccc(Cl)cc2)CC1)c1ccc(F)cc1 [HALOPERIDOL],–,–,–,–,selectivity ratio [11]: 3.6; selectivity ratio [12]: 2.9; ED50 [13]: 0.3 mg/kg; ED50 (Mus musculus [14]): 0.09 mg/kg; ED50 (Mus musculus [15]): 0.1 mg/kg
Cc1nc2n(c(=O)c1CCN1CCC(c3noc4cc(F)ccc34)CC1)CCCC2 [RISPERIDONE],–,–,–,–,ED50 [13]: 1.6 mg/kg; ED50 (Mus musculus [14]): 0.02 mg/kg; ED50 (Mus musculus [15]): 0.04 mg/kg; ED50 (Rattus norvegicus): 0.6 mg/kg

# Second part, led by results:
Ki (D(2) dopamine receptor [1]),Ki [2],Ki [3],Ki (Histamine H3 receptor),SMILES,other results
2.9 nM,0.7 nM,8.6 nM,–,O=C(CCCN1CCC(c2noc3cc(F)ccc23)CC1)c1cc2c3c(c1)CCN3C(=O)CC2,Ki (Histamine H1 receptor): 630 nM; Ki (D(3) dopamine receptor): 1.7 nM; Ki [4]: 616 nM; Ki [5]: 5.6 nM; Ki [6]: 43.1 nM
1.9 nM,4.3 nM,12.4 nM,9.2 nM,CN1CCN(Cc2ccc(OCCCCN3CCC(c4noc5cc(F)ccc45)CC3)cc2)CC1,Ki (Histamine H1 receptor): 642 nM; Ki (D(3) dopamine receptor): 37.6 nM; Ki [4]: 426 nM; Ki [5]: 123 nM; Ki [6]: 354 nM; IC50 [7]: 1060 nM
12.2 nM,8.6 nM,81.6 nM,93.7 nM,Fc1ccc2c(C3CCN(CCCOc4ccc(CN5CCCC5)cc4)CC3)noc2c1,–
2 nM,4.5 nM,95.4 nM,153 nM,Fc1ccc2c(C3CCN(CCCCOc4ccc(CN5CCOCC5)cc4)CC3)noc2c1,–
1.9 nM,5.6 nM,100 nM,195 nM,Fc1ccc2c(C3CCN(CCCOc4ccc(CN5CCOCC5)cc4F)CC3)noc2c1,–
2.7 nM,5.1 nM,4.4 nM,15.8 nM,CC1CCN(CCc2ccc(OCCCCN3CCC(c4noc5cc(F)ccc45)CC3)cc2)CC1,–
5.4 nM,6.3 nM,152 nM,163 nM,Fc1ccc2c(C3CCN(CCCOc4ccc(CN5CCOCC5)c(Cl)c4)CC3)noc2c1,–
1.5 nM,4.4 nM,85.5 nM,166 nM,Fc1ccc2c(C3CCN(CCCOc4ccc(CN5CCOCC5)cc4)CC3)noc2c1,–
2.6 nM,4.9 nM,112 nM,147 nM,COc1cc(CN2CCOCC2)ccc1OCCCN1CCC(c2noc3cc(F)ccc23)CC1,–
11.6 nM,6.2 nM,92.1 nM,312 nM,Fc1ccc2c(C3CCN(CCCOc4ccc(CN5CCCCC5)c(F)c4)CC3)noc2c1,–
6.2 nM,10.8 nM,77.9 nM,151 nM,COc1cc(CN2CCCC2)ccc1OCCCN1CCC(c2noc3cc(F)ccc23)CC1,–
3.1 nM,5.1 nM,100 nM,164 nM,Cc1cc(OCCCN2CCC(c3noc4cc(F)ccc34)CC2)ccc1CN1CCOCC1,–
